# Experimental data published in US20220251039A1, “Diaryl-B-Lactam Compound and Preparation Method and Pharmaceutical Use Thereof” (Fudan University, priority 2016, published 2022).
# “Also recorded” adds a separate entry of the source.
# Columns and labels:
# [1] = tested on: SKOV3; test: MTT antiproliferative assay, SKOV3; format: cell-based; conditions: Homo sapiens, SK-OV-3, SKOV3, 48 h, read-out: In vitro cell growth inhibition IC50, SKOV3
# Procedure: (§1) 5000 tumor cells per well were seeded into 96-well plate and allowed to adhere overnight. Cells were treated with various concentrations of tested compounds or DMSO (0.2%, as negative control) for 48 h. Then, the medium along with tested compounds or DMSO was discarded and […] per well MTT containing medium (0.5 mg/mL) was added. After incubation at 37° C. for 4 h, the MTT-containing medium was replaced by DMSO (150 μL per well) to dissolve the formazan crystals. Absorbance of the resulting solution was measured by microplate reader (Biotech ELx800) at 540 nm wavelength. Growth inhibition rates were calculated with the absorbance. Half maximal inhibitory concentration (IC50) of each compound was calculated using GraphPad Prism, version 6.0.
# [2] = tested on: Hela; test: MTT antiproliferative assay, Hela; format: cell-based; conditions: Homo sapiens, 48 h, read-out: In vitro cell growth inhibition IC50, Hela
# Procedure: as §1
# [3] = tested on: Bax, p53 and cleaved-PARP; test: Expression level of apoptosis associated proteins; format: cell-based, human; conditions: HeLa cells, Western blot and qPCR
# Procedure: A. Western blotting: After being treated with candidate compound, cells were harvested and lysed. Then, the lysate was isolated by ultracentrifuge and quantified by BCA assay according to the protocol. After being denatured, equivalent protein of each sample was separated by SDS-PAGE gel and wet-transferred onto […] nitrocellulose membrane. After being blocked by PBS containing 5% skim milk, the membrane was incubated with primary antibody at 4° C. overnight and secondary antibody at room temperature for 2 h and then visualized by enhanced chemiluminescence kit (Thermo Fisher, USA), sequentially.
# (§2) B. Quantitative PCR assay: HeLa cells were treated with 69, 70 or 97. The expression level of mRNA of target proteins was tested with qPCR kit (Takara).
# [4] = tested on: A2780 cells; test: Xenografts tumor growth assay in nude mice; format: in vivo, Balb/c nude mice; conditions: A2780 xenograft
# Procedure: 6 weeks old female Balb/c nude mice were purchased from Shanghai Slac Laboratory Animal Co. Ltd. (Shanghai, China). 2*10^6 A2780 cells suspended in 0.2 mL PBS per mouse was injected subcutaneously into the nude mice. […] Administration of agents or vehicle, or agents and measurement of tumor volumes with a digital caliper was done once every 2 days. Tumor volumes were calculated as volume=shortest diameter (W)^2*longest diameter (L)*0.52. When the average tumor volumes of vehicle treated group reached 2000 mm^3 in diameter, the mice were sacrificed and the tumors were isolated and weighed. Visceral organs of the mice as well as solid tumors were further analyzed by H&E staining.
# [5] = tested on: cellular apoptosis; test: Cell apoptosis analysis (Annexin V/PI); format: cell-based; conditions: 48 h, Annexin-V/PI flow cytometry
# Procedure: Cell apoptosis was detected using FITC Annexin V Apoptosis Detection Kit (BD Biosciences) according to manufacturer's instructions. Briefly, cells were incubated with indicated concentrations of 69, 70 and 97, CA-4 as positive control or diluent (0.2% DMSO) as negative control for 48 h. Then the cells were harvested, washed twice with PBS, and re-suspended in binding buffer. After being stained with Annexin-V and PI for 15 min in the dark place, cells were subjected to flow cytometry (Cytomics FC 500 MPL, Beckman Coulter) analysis. The results were indicated as mean values from three independent determinations.
# [6] = tested on: MDA-MB-231 cells; test: Colony formation assay; format: cell-based, human; conditions: 48 h treatment, 7-10 days growth
# Procedure: 1000 MDA-MB-231 cells per well were seeded into 6-well plate at a single cell density and were cultured at 37° C. for 48 h. After being treated with indicated concentrations of 69, 70 and 97, CA-4 as positive control, or diluent (0.2% DMSO) as negative control for 48 h, the agents containing medium was replaced by fresh medium to allow cell growth for additional 7-10 days. Then the cells were fixed with methanol and stained with gentian violet for 30 min. The number of colonies which consisted of more than 50 cells were counted. The results were indicated as mean values from three independent determinations.
# [7] = tested on: tubulin; test: Immunofluorescent analysis of tubulin morphology; format: cell-based, human; conditions: SKOV-3 cells, 24 h
# Procedure: After treatment with diluent (0.2% DMSO) or tested compounds at indicated concentrations for 24 h, SKOV-3 cells were fixed with methanol, permeabilized with 0.1% Triton X-100 in PBS and blocked by goat serum. Then the cells were incubated with a-tubulin antibody at 4° C. overnight, followed by incubation with Alexa 488 labeled secondary antibody (Jackson ImmunoResearch) at RT for 1 h. After being stained with DAPI, cells were examined and photographed with a Leica SP5 co-focal fluorescence microscope.
# [8] = tested on: p-histone H3, cyclin B1 and BuBR1; test: Cell cycle associated proteins assay; format: cell-based, human; conditions: HeLa cells, 24 h, Western blot and qPCR
# Procedure: A. HeLa cells were treated with 69, 70, 97 or DMSO for 24 h. After being harvested, the cells were lysed, and the concentrations of total protein were determined by BCA protein assay kit (Beyotime, China). […] The membrane was blocked with 5% BSA in TBST for 1.5 h, then incubated overnight with specific primary antibodies (Proteintech) at 4° C. After being washed three times by TBST, the membrane was incubated with specific secondary antibodies (Abnova, Taipei, China) at room temperature for 2 h. Finally, chemiluminescent reagents (Millipore) were employed to detect the protein bands.
# as §2
# [9] = tested on: KM mice; test: Acute toxicity assay; format: in vivo
# Procedure: KM mice were housed individually in a specific pathogen free facility. Groups of mice (n=10 per group, half male and half female) were injected intraperitoneally once with various dosages of 69 (95, 70, 50, 35, 25 mg/kg), 70 (500, 425, 350, 275, 200 mg/kg), 97 (275, 200, 150, 125 and 100 mg/kg) or vehicle (8.3% cremohorp EL and 8.3% alcohol in PBS) as negative control, respectively. 69, 70 and 97 was dissolved in cremeohore EL and alcohol mixture (1:1, v/v) and further diluted with PBS (1:5, v/v). The death of mice were monitored daily and recorded up to 14 days after injection.
# [10] = tested on: tubulin; test: Immunoblotting analysis of polymerized/depolymerized tubulin; format: cell-based, human; conditions: Hela cells, 6 h
# Procedure: After being treated with diluent (0.2% DMSO), tested compound, CA-4 or PTX for 6 h, Hela cells were lysed with microtubulestabilizing buffer, containing 100 mM PIPES, pH 6.8, 1 mM MgCl2, 2 mM EGTA, 0.5% NP-40, 2 M glycerol, 5 μM PTX and protease inhibitors cocktail (Roche), and the lysate was centrifuged at 15,000 rpm for 15 min. Supernatant containing depolymerized tubulin was carefully collected, whereas pellet (polymerized tubulin) was further dissolved in SDS-lysis buffer (Beyotime, China). Equal amounts of supernatant and dissolved pellet were subjected to immunoblotting analysis as described above using a tubulin antibody (Proteintech).
smiles,measurement,setting,value
"COc1ccc([C@H]2C(=O)C(=O)N2c2cc(OC)c(OC)c(OC)c2)cc1OCc1ccccc1 [Compound 71, (S)-4-(3-(benzyloxy)-4-methoxyphenyl)-1-(3,4,5-trimethoxyphenyl)azetidine-2,3-dione]",IC50,[1],> 10 µM
same,IC50,[2],> 10 µM
"COc1ccc([C@H]2[C@H](C)C(=O)N2c2cc(OC)c(OC)c(OC)c2)cc1O [Compound 97, (3S,4R)-4-(3-hydroxy-4-methoxyphenyl)-3-methyl-1-(3,4,5-trimethoxyphenyl)azetidin-2-one]","expression of Bax, p53 and cleaved-PARP",[3],"significantly promote the expression of the proapoptotic protein Bax, the tumor suppressor gene p53, and the cleaved DNA repair enzyme; also recorded: significantly induce the expression of Bax, p53 and cleaved-PARP"
same,tumor growth in vivo,"[4]; i.p. once every 2 days, 69 7.5 mg/kg, 70 12.5 mg/kg, 97 4 or 8 mg/kg",significantly inhibit tumor growth in vivo; also recorded: anti-tumor activities in vivo
same,"H&E staining of liver, kidney and spleen",[4]; treated groups,"no abnormal areas are observed in tissue staining of liver, kidney and spleen; also recorded: no detectable abnormalities were observed in liver, kidney and spleen"
same,H&E staining of tumor sections (necrosis),[4]; treated groups,cause tumor tissue to produce necrotic areas; also recorded: extensive areas of necrosis or cell death
same,cellular apoptosis,[5],significantly promote apoptosis; also recorded: significantly induce cellular apoptosis
same,colony formation,[6],significantly inhibit the formation of colonies of cancer cells
same,tubulin assembly (immunofluorescence),[7],significantly inhibit tubulin aggregation; also recorded: strongly inhibit tubulin assembly in cancer cells
same,"expression of p-histone H3, cyclin B1 and BuBR1",[8],"significantly promote the expression of phosphorylated histone H3, cyclin B1, and mitotic checkpoint protein BuBR1"
same,No. of dead mice 5-14 days,[9]; 100 mg/kg i.p. once,0
same,No. of dead mice 1 day,[9]; 100 mg/kg i.p. once,0
same,No. of dead mice 2 days,[9]; 100 mg/kg i.p. once,0
same,No. of dead mice 3 days,[9]; 100 mg/kg i.p. once,1
same,No. of dead mice 4 days,[9]; 100 mg/kg i.p. once,0
same,No. of dead mice Total death,[9]; 100 mg/kg i.p. once,1
same,Survival (%) on day 14,[9]; 100 mg/kg i.p. once,90%
same,No. of dead mice 5-14 days,[9]; 125 mg/kg i.p. once,0
same,No. of dead mice 1 day,[9]; 125 mg/kg i.p. once,0
same,No. of dead mice 2 days,[9]; 125 mg/kg i.p. once,2
same,No. of dead mice 3 days,[9]; 125 mg/kg i.p. once,1
same,No. of dead mice 4 days,[9]; 125 mg/kg i.p. once,0
same,No. of dead mice Total death,[9]; 125 mg/kg i.p. once,3
same,Survival (%) on day 14,[9]; 125 mg/kg i.p. once,70%
same,No. of dead mice 5-14 days,[9]; 150 mg/kg i.p. once,0
same,No. of dead mice 1 day,[9]; 150 mg/kg i.p. once,2
same,No. of dead mice 2 days,[9]; 150 mg/kg i.p. once,4
same,No. of dead mice 3 days,[9]; 150 mg/kg i.p. once,0
same,No. of dead mice 4 days,[9]; 150 mg/kg i.p. once,0
same,No. of dead mice Total death,[9]; 150 mg/kg i.p. once,6
same,Survival (%) on day 14,[9]; 150 mg/kg i.p. once,40%
same,No. of dead mice 5-14 days,[9]; 200 mg/kg i.p. once,0
same,No. of dead mice 1 day,[9]; 200 mg/kg i.p. once,1
same,No. of dead mice 2 days,[9]; 200 mg/kg i.p. once,4
same,No. of dead mice 3 days,[9]; 200 mg/kg i.p. once,2
same,No. of dead mice 4 days,[9]; 200 mg/kg i.p. once,0
same,No. of dead mice Total death,[9]; 200 mg/kg i.p. once,7
same,Survival (%) on day 14,[9]; 200 mg/kg i.p. once,30%
same,No. of dead mice 5-14 days,[9]; 275 mg/kg i.p. once,0
same,No. of dead mice 1 day,[9]; 275 mg/kg i.p. once,2
same,No. of dead mice 2 days,[9]; 275 mg/kg i.p. once,4
same,No. of dead mice 3 days,[9]; 275 mg/kg i.p. once,2
same,No. of dead mice 4 days,[9]; 275 mg/kg i.p. once,1
same,No. of dead mice Total death,[9]; 275 mg/kg i.p. once,9
same,Survival (%) on day 14,[9]; 275 mg/kg i.p. once,10%
same,polymerized tubulin (immunoblotting),[10],significantly inhibit tubulin aggregation; also recorded: dramatically reduction of polymerized tubulin
